Laboratory results taken from ChEMBL document CHEMBL1151189, “Antimicrobial chlorinated bibenzyls from the liverwort Riccardia marginata” (2004).
Active and inactive are the calls of the source. No cut-off for these calls is given here.

How the values were obtained:
Escherichia coli = test: Antimicrobial activity against Escherichia coli; format: functional, organism-based
[1] = system: Trichophyton mentagrophytes; test: Antimicrobial activity against Trichophyton mentagrophytes at 30 ug/disk; format: functional; details: read-out: IZ
Amorphotheca resinae = test: Antimicrobial activity against Cladosporium resinae at 30 ug/disk; format: functional; details: read-out: IZ
Candida albicans = test: Antimicrobial activity against Candida albicans at 30 ug/disk; format: functional; details: read-out: IZ
Bacillus subtilis [2] = test: Antimicrobial activity against Bacillus subtilis at 30 ug/5 mm disk; format: functional
Bacillus subtilis [3] = test: Antimicrobial activity against Bacillus subtilis at 30 ug/disk; format: functional; details: read-out: IZ

For `Oc1c(Cl)cc(Cl)c(CCc2ccccc2)c1Cl`, the Activity (Escherichia coli) was “inactive”, the zone of inhibition at 30 µg/disc [1] was 7 mm and the zone of inhibition at 30 µg/disc (Amorphotheca resinae) was 1 mm. For the same molecule, the zone of inhibition at 30 µg/disc (Candida albicans) was 2 mm and the “inhibition zone (IZ)” value (Bacillus subtilis [2]) was 2 mm.
In the case of `Oc1c(Cl)ccc(CCc2ccccc2)c1Cl`, the Activity (Escherichia coli) was “inactive”, the zone of inhibition at 30 µg/disc [1] was 12 mm and the zone of inhibition at 30 µg/disc (Amorphotheca resinae) was 2 mm. For the same molecule, the zone of inhibition at 30 µg/disc (Candida albicans) was 2 mm and the zone of inhibition at 30 µg/disc (Bacillus subtilis [3]) was 2 mm.
In the case of `Oc1cccc(CCc2ccccc2)c1Cl`, the Activity (Escherichia coli) was “inactive”, the zone of inhibition at 30 µg/disc [1] was 3 mm and the zone of inhibition at 30 µg/disc (Amorphotheca resinae) was 0 mm. It also gave a zone of inhibition at 30 µg/disc (Candida albicans) of 2 mm and a zone of inhibition at 30 µg/disc (Bacillus subtilis [3]) of 2 mm.
